Assay results reported in publication PMC7496275, “Pentathiepins: A Novel Class of Glutathione Peroxidase 1 Inhibitors that Induce Oxidative Stress, Loss of Mitochondrial Membrane Potential and Apoptosis in Human Cancer Cells” (Chemmedchem, 2020).

Legend:
HL-60 cells = test: Cell morphology after incubation; assay type: cell-based, human; conditions: 25 μM, 6 h
[1] = system: SISO human cervix cancer cell line; test: Crystal violet proliferation assay; assay type: cell-based; conditions: Homo sapiens, 37 °C, 96 h, n>4, read-out: Inhibition of cell viability GI50 (CI 95 %)
Procedure: GI50 values for 50 % growth inhibition were all in a low micro molar range (Table 1). […] The indole−pentathiepins gave lower GI50 values than the pyrrolo[1,2‐a]quinoxaline derivatives. […] There was also a trend showing that an electron rich substituent in position R^2 increased the antiproliferative effect in SISO cells.
Crystal violet proliferation assay: To measure cell growth inhibition, the crystal violet assay was carried out as previously described.37 Adherent cell lines were seeded out in a 96‐well plate (1000 cells per 200 μL culture medium) and allowed to attach for 24 h. Cells were exposed to nine serial dilutions of compound, added to the medium from 1000‐fold concentrated stock solutions in DMF. For the controls, cells were exposed to 0.1 % DMF alone. After addition of compounds, plates for the detection of the starting point of the proliferation at incubation time zero (t 0) were stopped with glutaraldehyde (see below), washed with Dulbecco's buffer (containing KCl 0.2 g/L, MgSO4 ⋅ 7 H2O 0.1 g/L, Na2HPO4 ⋅ >7 H2O 1.55 g/L, KH2HPO4 0.2 g/L and NaCl 8 g/L in water) and stored at 4 °C until the staining procedure. Treated cells were incubated for 96 h in the incubator, the medium was removed and replaced with 100 μL of 1 % glutaraldehyde in Dulbecco's buffer for 20 min. After washing twice with 150 μL of Dulbecco's buffer, the buffer was removed and replaced with 100 μL of a 0.02 % crystal violet solution dissolved in water for 30 min and subsequently washed in tap water for 15 min. Water was removed and replaced with 100 μL of ethanol (70 % in water) followed by shaking on a 96‐well shaker (MS3 digital, IKA‐Werke, Germany) for 2 h. Optical density was measured with a SpectraMax Plus 383 microtiter plate reader at λ=570 nm (Molecular Devices, USA). The optical density of t 0 plates at the time of treatment were subtracted from optical densities of plates with treated cells after 96 h (T), and the growth inhibition relative to untreated, control cells (C) as described.22 Growth inhibition concentrations at 50 % (GI50) were calculated by determining the inflection point of the sigmoidal log dose‐growth inhibition (%T/C) curves with the GraphPad Prism 6.0 software.

[2] = Stability in GPx assay buffer with GSH by RP-HPLC; assay type: physicochemical
Procedure: (§1) It has been reported that pentathiepins are instable in the presence of thiols such as GSH.20 Thus, the stability of a representative pentathiepin, 4, in the presence of GSH was studied first by APCI‐MS. Incubations of 4 in the presence of 10 mM GSH, a biologically relevant concentration, were monitored at 23 °C for a period up to 1 h. […] Next, the stability of 4 was studied by RP‐HPLC in the same buffer and with the same GSH concentration (0.25 mM) used in the GPx assay (see below). Over the course of a 70 min incubation a nearly 30 % loss of the pentathiepin (Figure S32) was observed. However, since the GPx assay is only run for 20 min, the direct reaction between 4 and GSH would only account for a ca. 10 % loss of pentathiepin under assay conditions.
Melting points were determined with a Büchi Melting Point M‐565 or a Büchi 545 (Büchi, Flawil, CH), temperatures are uncorrected. ^1H NMR and ^13C NMR spectra were recorded either with a Bruker Avance II‐300 or an Avance II Ultrashield 400 MHz instrument. Chemical shifts δ are given in ppm and the solvent residual peak (CDCl3: ^1H, δ=7.27; ^13C, δ=77.0 and [D6]DMSO: ^1H, δ=2.50; ^13C, δ=40) was used as an internal standard with the quinoxaline derivatives while TMS was used for the indole derivatives. APCI‐MS (m/z) spectra were recorded on an Advion MS. […]

[3] = Stability in presence of GSH by APCI-MS; assay type: physicochemical; conditions: 10 mM GSH, 23 °C, up to 1 h
Procedure: as §1

bovine GPx1 = target: T1, bovine GPx1 (Bos taurus, UniProt P00435); test: Jump-dilution experiments for reversibility of GPx1 inhibition; assay type: biochemical; conditions: 30 min pre-incubation at 23 °C, 100-fold jump-dilution
T1 construct: 180 μL of a bovine erythrocyte GPx1 solution (0.125 U/mL); purchased Sigma Aldrich (Taufkirchen, Germany); host or cells: bovine erythrocytes
T1 sequence (P00435 1-205): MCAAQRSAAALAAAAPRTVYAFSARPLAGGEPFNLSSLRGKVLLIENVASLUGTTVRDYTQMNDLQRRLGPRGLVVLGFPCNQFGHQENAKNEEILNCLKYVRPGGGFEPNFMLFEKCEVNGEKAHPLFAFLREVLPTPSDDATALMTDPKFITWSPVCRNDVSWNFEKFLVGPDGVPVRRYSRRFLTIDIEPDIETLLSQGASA
Procedure: No difference in the inhibitory activity of 4 after jump‐dilution (Figure 4B left, a) was observed compared to expected inhibition at 0.25 μM (Figure 4B left, 0.25 μM), evidence that GPx1 inhibition is reversible. […] This is consistent with findings that MSA can act as an irreversible inhibitor of GPx1.11 In further jump‐dilution experiments, we pre‐incubated both inhibitors with the assay concentrations of either GSH and TBHP (a, d) or GSH only (b, e), with (a–c) and without (d–f) GPx1 for 30 min.
The jump‐dilution experiments were carried out in a 96‐well plates at room temperature. To each well was added 75 μL of a 20 IU mL^−1 GPx stock‐solution followed by the addition of 3 μL of a 2.5 mM solution of 4 in DMF and 30 μL of a 2.5 mM solution of GSH in buffer or 30 μL of a 2.5 mM solution of GSH in buffer and 30 μL of a 5 mM solution of TBHP in water and 300 μL buffer. The plates were shaken for 30 min in the dark, then each well was diluted 100 fold into a second plate prepared for the GPx‐assay. The enzyme activity was immediately measured as described above.

SMILES: CCOc1c2c(c3cnc4cc(C)c(C)cc4n13)SSSSS2 [Compound 4]
- change in morphology (HL-60 cells): membrane blebbing
- GI50 [1]: 8.9 µM
- loss of the pentathiepin ([2]; 0.25 mM GSH in GPx assay buffer, 70 min, 23 °C, RP-HPLC): ~30%
- loss of pentathiepin under assay conditions ([2]; 0.25 mM GSH, 20 min GPx assay duration): ca. 10%
- stability in presence of GSH (mass spectrum) [3]: No changes in the mass spectrum
- reversibility of GPx1 inhibition (bovine GPx1): reversible
